Test results reported in patent publication US20240408169A1 (priority 2023, published 2024).
pIC50: −log10 of the molar value. *1 amine or outer side, *2 acyl side, *3 side chain or, on linkers, in order; H or OH if unused. Where a SMILES comes first, the peptide text is derived from it. Bridges are numbered along the chain shown (N, C = ends). [ ]: non-standard residue; d: D form. The star is where a group is joined. X90 = CC(=O)N1CC=C(c2ccc(Cl)cc2C[C@@H](C(=O)[*:2])N(C)[*:1])CC1; X104 = CN([C@@H](Cc1cc(Cl)ccc1C1=CCOCC1)C(=O)[*:2])[*:1]; NMe(hhhLys) = CN([C@@H](CCCCCCCN[*:3])C(=O)[*:2])[*:1]; cBuCO(3,3-F2-1-CF3) = O=C(C1(C(F)(F)F)CC(F)(F)C1)*; Pro(trans-4-F) = O=C(O)[C@@H]1C[C@@H](F)CN1; Gly(cPr) = N[C@H](C(=O)O)C1CC1

Experiments:
CyclinA2/CDK2 = molecular target: T1, CyclinA2/CDK2 (Homo sapiens, UniProt P20248); test: Fluorescence Polarization (FP) competitive binding assay, Cyclin A2/Cdk2; conditions: 8 nM Cyclin A2/Cdk2, 2 nM FAM probe; average of 2-3 independent experiments; read-out: Cyclin A FP IC50;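 note: plates equilibrated two hours at room temperature before polarization reading, IC50 fitted from eight-concentration compound titration curves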
T1 construct: purchased CRELUX Protein Services

OVCAR3 cells = test: MTT proliferation assay, OVCAR3; type: cell-based; conditions: 5 days compound exposure, 1:3 serial dilution starting at 10 μM;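 note: compound given as an 8- or 10-point series, one day after plating, with exposure covering roughly 3-4 cell doublings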
WI-38 cells = test: MTT proliferation assay, WI-38; type: cell-based; conditions: 3 days compound exposure, 1:3 serial dilution starting at 10 μM;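 note: Eight- or ten-point dilution series, with exposure length chosen to span about three to four cell doublings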
CyclinB1/CDK1 = molecular target: T2, CyclinB1/CDK1 (Homo sapiens, UniProt P14635); test: Fluorescence Polarization (FP) competitive binding assay, Cyclin B1/Cdk1; conditions: 10 nM Cyclin B1/Cdk1, 2 nM FAM probe; average of 2-3 independent experiments; read-out: Cyclin B FP IC50;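 note: fluorescence polarization read after equilibration at room temperature, with IC50 taken from serially diluted dose-response curves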
T2 construct: purchased Eurofins, discovery 14-450

NCI-H1048 cells = test: MTT proliferation assay, NCI-H1048; type: cell-based; conditions: 5 days compound exposure, 1:3 serial dilution starting at 10 μM;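 note: Dose-response in 96-well plates over 8 or 10 concentration points, with exposure spanning 3-4 cell doublings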
CyclinE1/CDK2 = molecular target: T3, CyclinE1/CDK2 (Homo sapiens, UniProt P24864); test: Fluorescence Polarization (FP) competitive binding assay, Cyclin E1/Cdk2; conditions: 10 nM Cyclin E1/Cdk2, 2 nM FAM probe; average of 2-3 independent experiments; read-out: Cyclin E FP IC50;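 note: readings taken after two-hour equilibration at room temperature in HEPES buffer with NaCl, DTT, NP-40 and BSA, IC50 fitted from eight-concentration serial dilution series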
T3 construct: purchased Eurofins, discovery 14-475

Structure (SMILES)	pIC50 (CyclinA2/CDK2)	GI50 (OVCAR3 cells)	GI50 (WI-38 cells)	pIC50 (CyclinB1/CDK1)	GI50 (NCI-H1048 cells)	pIC50 (CyclinE1/CDK2)
CC(=O)N1[C@H]2CC[C@@H]1C=C(c1ccc(Cl)cc1C[C@H]1C(=O)N(C)CCCCCCC[C@H](N(C)C(=O)[C@@H](NC(=O)[C@@H]3C[C@@H](F)CN3C(=O)C3(C(F)(F)F)CC(F)(F)C3)C3CC3)C(=O)N[C@@H](CC(C)C)C(=O)N1C)C2 (single isomer, unassigned) [Example 57-P1]	7.70	10 nM	13800 nM	7.70	10 nM	5.85
CC(=O)N1[C@H]2CC[C@@H]1C=C(c1ccc(Cl)cc1C[C@H]1C(=O)N(C)CCCCCCC[C@H](N(C)C(=O)[C@@H](NC(=O)[C@@H]3C[C@@H](F)CN3C(=O)C3(C(F)(F)F)CC(F)(F)C3)C3CC3)C(=O)N[C@@H](CC(C)C)C(=O)N1C)C2 (single isomer, unassigned) [Example 57-P2]	7.70	10 nM	16900 nM	7.70	10 nM	5.88
CC(C)C[C@@H]1NC(=O)[C@@H](N(C)C(=O)[C@@H](NC(=O)[C@@H]2C[C@@H](F)CN2C(=O)C2(C(F)(F)F)CCC2)C2CC2)CC=CCCCCNC(=O)[C@H](Cc2cc(Cl)cnc2OC2CC2)N(C)C1=O (single isomer, unassigned) [Example 107-P1]	6.60	1010 nM	5290 nM	7.70	700 nM	6.27
CC(C)C[C@@H]1NC(=O)[C@@H](N(C)C(=O)[C@@H](NC(=O)[C@@H]2C[C@@H](F)CN2C(=O)C2(C(F)(F)F)CCC2)C2CC2)CC=CCCCCNC(=O)[C@H](Cc2cc(Cl)cnc2OC(C)C)N(C)C1=O (single isomer, unassigned) [Example 136-P1]	6.85	1770 nM	3960 nM	7.70	830 nM	6.49
CC(C)C[C@@H]1NC(=O)[C@@H](N(C)C(=O)[C@@H](NC(=O)[C@@H]2C[C@@H](F)CN2C(=O)C2(C(F)(F)F)CCC2)C2CC2)CC=CCCCCNC(=O)[C@H](Cc2cc(Cl)cnc2OC(C)C)N(C)C1=O (single isomer, unassigned) [Example 136-P2]	7.10	640 nM	6670 nM	7.70	450 nM	6.92
CC[C@H](NC(=O)C1(C(F)(F)F)CC1)C(=O)N[C@@H](C)C(=O)N[C@H]1CC=CCCCCNC(=O)[C@H](Cc2cc(Cl)ccc2Cl)N(C)C(=O)[C@H](CC(C)C)NC1=O [Example 1, N—((S)-1-(((S)-1-(((3S,6S,9S)-3-(2,5-dichlorobenzyl)-6-isobutyl-4-methyl-2,5,8-trioxo-1,4,7-triazacyclohexadec-11-en-9-yl)amino)-1-oxopropan-2-yl)amino)-1-oxobutan-2-yl)-1-(trifluoromethyl)cyclopropane-1-carboxamide]	6.68	6610 nM	14600 nM	7.70	4000 nM	6.36
CC(C)C[C@@H]1NC(=O)[C@@H](N(C)C(=O)[C@@H](NC(=O)[C@@H]2C[C@@H](F)CN2C(=O)C2(C(F)(F)F)CC(F)(F)C2)C2CC2)CC=CCCCCNC(=O)[C@H](Cc2cc(Cl)ccc2C2=CCOCC2)N(C)C1=O [Example 17]	7.05	560 nM	17900 nM	7.70	240 nM	5.39
CC(=O)N1CC=C(c2ccc(Cl)cc2C[C@H]2C(=O)NCCCCC=CC[C@H](N(C)C(=O)[C@@H](NC(=O)[C@@H]3C[C@@H](F)CN3C(=O)C3(C(F)(F)F)CC(F)(F)C3)C3CC3)C(=O)N[C@@H](CC(C)C)C(=O)N2C)CC1 [Example 18]	7.05	340 nM	9030 nM	7.70	170 nM	5.21
CC(=O)N1CC=C(c2ccc(Cl)cc2C[C@H]2C(=O)NCCCCCCC[C@H](N(C)C(=O)[C@@H](NC(=O)[C@@H]3C[C@@H](F)CN3C(=O)C3(C(F)(F)F)CC(F)(F)C3)C3CC3)C(=O)N[C@@H](CC(C)C)C(=O)N2C)CC1 [Example 20] ({cBuCO(3,3-F2-1-CF3)}-[Pro(trans-4-F)][Gly(cPr)][NMe(hhhLys)]L[X90]; lactam 3-C)	7.70	20 nM	11100 nM	7.70	20 nM	5.82
CC(C)C[C@@H]1NC(=O)[C@@H](N(C)C(=O)[C@@H](NC(=O)[C@@H]2C[C@@H](F)CN2C(=O)C2(C(F)(F)F)CC(F)(F)C2)C2CC2)CCCCCCCNC(=O)[C@H](Cc2cc(Cl)ccc2C2=CCOCC2)N(C)C1=O [Example 21] ({cBuCO(3,3-F2-1-CF3)}-[Pro(trans-4-F)][Gly(cPr)][NMe(hhhLys)]L[X104]; lactam 3-C)	7.70	20 nM	6850 nM	7.70	10 nM	5.95
CC(C)C[C@@H]1NC(=O)[C@@H](N(C)C(=O)[C@@H](NC(=O)[C@@H]2C[C@@H](F)CN2C(=O)C2(C(F)(F)F)CC(F)(F)C2)C2CC2)CC=CCCCCNC(=O)[C@H](Cc2cc(Cl)ccc2-c2cnn(C)c2)N(C)C1=O [Example 26]	7.22	170 nM	8740 nM	7.70	110 nM	5.93
CC(C)C[C@@H]1NC(=O)[C@@H](N(C)C(=O)[C@@H](NC(=O)[C@@H]2C[C@@H](F)CN2C(=O)C2(C(F)(F)F)CC(F)(F)C2)C2CC2)CC=CCCCCNC(=O)[C@H](Cc2cc(Cl)ccc2-c2cnn(C3COC3)c2)N(C)C1=O [Example 27]	7.05	370 nM	11400 nM	7.70	90 nM	5.72
CC(C)C[C@@H]1NC(=O)[C@@H](N(C)C(=O)[C@@H](NC(=O)[C@@H]2C[C@@H](F)CN2C(=O)C2(C(F)(F)F)CCC2)C2CC2)CC=CCCCCNC(=O)[C@H](Cc2cc(Cl)ccc2-c2cnn(C3COC3)c2)N(C)C1=O [Example 32]	7.30	250 nM	11800 nM	7.70	140 nM	6.23
CC(C)C[C@@H]1NC(=O)[C@@H](N(C)C(=O)[C@@H](NC(=O)[C@@H]2C[C@@H](F)CN2C(=O)C2(C(F)(F)F)CCC2)C2CC2)CC=CCCCCNC(=O)[C@H](Cc2cc(Cl)ccc2-c2cnn(CCO)c2)N(C)C1=O [Example 33]	7.70	170 nM	15600 nM	7.70	90 nM	6.57
CC(C)C[C@@H]1NC(=O)[C@@H](N(C)C(=O)[C@@H](NC(=O)[C@@H]2C[C@@H](F)CN2C(=O)C2(C(F)(F)F)CCC2)C2CC2)CC=CCCCCN(C)C(=O)[C@H](Cc2cc(Cl)ccc2-c2cnn(C)c2)N(C)C1=O [Example 34]	7.70	110 nM	13100 nM	7.70	60 nM	6.68
CC(C)C[C@@H]1NC(=O)[C@@H](N(C)C(=O)[C@@H](NC(=O)[C@@H]2C[C@@H](F)CN2C(=O)C2(C(F)(F)F)CCC2)C2CC2)CC=CCCCCN(C)C(=O)[C@H](Cc2cc(Cl)ccc2-c2cncnc2)N(C)C1=O [Example 35]	6.92	350 nM	12400 nM	7.70	170 nM	5.77
CC(=O)N1CC=C(c2ccc(Cl)cc2C[C@H]2C(=O)N(C)CCCCC=CC[C@H](N(C)C(=O)[C@@H](NC(=O)[C@@H]3C[C@@H](F)CN3C(=O)C3(C(F)(F)F)CCC3)C3CC3)C(=O)N[C@@H](CC(C)C)C(=O)N2C)CC1 [Example 36]	7.52	350 nM	16000 nM	7.70	110 nM	6.09
CC(C)C[C@@H]1NC(=O)[C@@H](N(C)C(=O)[C@@H](NC(=O)[C@@H]2C[C@@H](F)CN2C(=O)C2(C(F)(F)F)CCC2)C2CC2)CC=CCCCCN(C)C(=O)[C@H](Cc2cc(F)ccc2-c2cnn(C)c2)N(C)C1=O [Example 40]	7.30	50 nM	15400 nM	7.70	60 nM	6.62
